Experimental data taken from patent publication US6566401B2, “N-acetylcysteine compositions and methods for the treatment and prevention of drug toxicity” (The Board of Trustees of the Leland Stanford Junior …, priority 2001, dated 2003).

Columns and labels:
[1] = cited from earlier work
[2] = NAC treatment of subjects taking AZT: hematologic toxicity; type: in vivo, human; details: HIV disease
Text: Results have shown that acetaminophen usage, which lowers glutathione levels exacerbates AZT toxicity. Richman, et al. (1987) N. Eng. J. Med. 317: 192-97. De Rosa et al. recently have shown that treatment with NAC which increases glutathione levels decreases the toxicity. De Rosa et al., submitted to JAMA for publication.
It appears that NAC provides cysteine needed to redress the excessive sulfur loss that occurs in HIV disease and specifically to replenish intracellular glutathione. […] This decreases the AZT-mediated inhibition of erythroid development, helps to improve the overall metabolism and stability of erythrocytes and their progenitors (for example, by enabling optimal functioning of the glucose-6-phosphate dehydrogenase and other energy-supplying pathways). In addition, it improves the cell's ability to withstand the production of oxidants induced by the introduction of drugs (such as AZT) and the internal production of molecules (such as TNF and HIV-TAT) that trigger intracellular oxidant production.

[3] = effects counter to those reported for NAC; cited from earlier work

CC(=O)N[C@@H](CS)C(=O)O [NAC, N-acetylcysteine]
half-cell potential for the NAC thiol/disulfide pair [1]: about +63 mV
effect of NAC treatment on AZT's hematologic toxicity [2]: decreases AZT's hematologic toxicity

CC(=O)N[C@@H](CSSC[C@H](NC(C)=O)C(=O)O)C(=O)O [oxidized form of NAC, di-n-acetylcysteine]
bioactive dose relative to NAC (fold less than NAC) [3]: 10-100 fold
